These results are taken from article PMC6044503 (ACS Omega, 2017).

“And” between values parts separate entries of the source, which are not always exact repeats. Equal entries are not always repeated. Where a SMILES comes first, the peptide text is derived from it. [ ]: non-standard residue; d: D form. The star is where a group is joined. 1Nal = N[C@@H](Cc1cccc2ccccc12)C(=O)O; 2Nal = N[C@@H](Cc1ccc2ccccc2c1)C(=O)O; Cyclohexanecarbonyl = O=C(C1CCCCC1)*; 1Naphthoyl = O=C(c1cccc2ccccc12)*; 2Naphthoyl = O=C(c1ccc2ccccc2c1)*; Cha = N[C@@H](CC1CCCCC1)C(=O)O; Nle = CCCC[C@H](N)C(=O)O; Aib = CC(C)(N)C(=O)O; Bz = O=C(c1ccccc1)*

Assay [1] concerns the target T1, human Y2R (Homo sapiens, UniProt P49146).
T1 sequence (P49146 1-381): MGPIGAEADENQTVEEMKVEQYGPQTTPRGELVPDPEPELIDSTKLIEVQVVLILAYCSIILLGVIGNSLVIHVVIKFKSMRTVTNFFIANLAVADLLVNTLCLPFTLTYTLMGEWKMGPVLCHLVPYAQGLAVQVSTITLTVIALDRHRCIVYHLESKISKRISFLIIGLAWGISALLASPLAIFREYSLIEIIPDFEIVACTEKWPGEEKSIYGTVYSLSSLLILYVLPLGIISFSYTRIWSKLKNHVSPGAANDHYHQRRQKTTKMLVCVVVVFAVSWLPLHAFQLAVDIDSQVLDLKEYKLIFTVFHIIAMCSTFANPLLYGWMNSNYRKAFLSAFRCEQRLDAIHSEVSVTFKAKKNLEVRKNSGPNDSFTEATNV
In words: biochemical. In kind it is binding.

Assay [2] addresses T1, human Y2R. In words: biochemical. The assay is classed as biochemical.
In assay [3] the test system is male C57BL/6J mice. As to the kind of experiment: Food intake assay, bolus ip administration in lean mice. In kind it is in vivo, mouse. Conditions: for % food intake inhibition: vs saline; for % food intake inhibition / % food intake inhibition (cumulative): mean ± SD; for minimum effective dose (food intake reduction): ip administration, lean mice.
Setting [4] is: bolus ip 1000 nmol/kg, 3 h after administration.
Setting [5] is: bolus ip 500 nmol/kg, 3 h after administration.

As to `CCCC[C@H](NC(=O)[C@H](CC(C)C)NC(=O)[C@H](CC(N)=O)NC(=O)[C@@H](NC(=O)[C@H](CC1CCCCC1)NC(=O)[C@H](Cc1c[nH]cn1)NC(=O)[C@H](CCCNC(=N)N)NC(=O)c1ccccc1)[C@@H](C)CC)C(=O)N[C@H](C(=O)N[C@@H](CCCNC(=N)N)C(=O)N[C@@H](CCC(N)=O)C(=O)N[C@@H](CCCNC(=N)N)C(=O)N[C@@H](CC1CCCCC1)C(N)=O)[C@@H](C)O` [Compound 7] (Bz-RH[Cha]INL[Nle]TRQR[Cha]-NH2), in assay [1], the IC50 came out at 13 nM. Moreover, in assay [2], the midpoint of the response, the EC50, lay at 2.4 nM. Besides, in assay [3] (setting [4]), the “% food intake inhibition” value is 12 ± 5%.

For `CC[C@H](C)[C@H](NC(=O)[C@H](CC1CCCCC1)NC(=O)[C@H](Cc1c[nH]cn1)NC(=O)[C@H](CCCNC(=N)N)NC(=O)c1ccccc1)C(=O)N[C@@H](CC(N)=O)C(=O)N[C@@H](CC(C)C)C(=O)N[C@@H](CCCCN)C(=O)N[C@H](C(=O)N[C@@H](CCCNC(=N)N)C(=O)N[C@@H](CCC(N)=O)C(=O)N[C@@H](CCCNC(=N)N)C(=O)N[C@@H](CC1CCCCC1)C(N)=O)[C@@H](C)O` [Compound 9] (Bz-RH[Cha]INLKTRQR[Cha]-NH2), the IC50 in assay [1] was determined as 1.6 nM. The molecule further displayed an EC50 in assay [2] of 0.62 nM. In addition, in assay [2] (relative to compound 4), the “agonist activity, fold increase compared to that of 4” value is recorded as “more than 4 fold”. The “% food intake inhibition” value in assay [3] (setting [4]) is “–15 ± 7%”.

The molecule `CC[C@H](C)[C@H](NC(=O)[C@H](CC1CCCCC1)NC(=O)[C@H](Cc1c[nH]cn1)NC(=O)[C@H](CCCNC(=N)N)NC(=O)C1CCCCC1)C(=O)N[C@@H](CC(N)=O)C(=O)N[C@@H](Cc1c[nH]c2ccccc12)C(=O)N[C@H](C(=O)N[C@H](C(=O)N[C@@H](CCCNC(=N)N)C(=O)N[C@@H](CCC(N)=O)C(=O)N[C@@H](CCCNC(=N)N)C(=O)N[C@@H](CC1CCCCC1)C(N)=O)[C@@H](C)O)[C@@H](C)CC` [Compound 13] (Cyclohexanecarbonyl-RH[Cha]INWITRQR[Cha]-NH2) returned a half-maximal inhibitory concentration (IC50) in assay [1] of 6.8 nM. In assay [2], this molecule yielded an EC50 of 1.7 nM. For the same molecule, in assay [3] (setting [5]), the “% food intake inhibition” value stood at 8 ± 6%.

Turning to `CC[C@H](C)[C@H](NC(=O)[C@H](Cc1c[nH]c2ccccc12)NC(=O)[C@H](CC(N)=O)NC(=O)[C@H](CC1CCCCC1)NC(=O)[C@H](CC1CCCCC1)NC(=O)[C@H](Cc1c[nH]cn1)NC(=O)[C@H](CCCNC(=N)N)NC(=O)C1CCCCC1)C(=O)N[C@H](C(=O)N[C@@H](CCCNC(=N)N)C(=O)N[C@@H](CCC(N)=O)C(=O)N[C@@H](CCCNC(=N)N)C(=O)N[C@@H](CC1CCCCC1)C(N)=O)[C@@H](C)O` [Compound 14] (Cyclohexanecarbonyl-RH[Cha][Cha]NWITRQR[Cha]-NH2), the concentration for half-maximal inhibition (IC50) in assay [1] was 15 nM. The same molecule yielded an EC50 in assay [2] of 11 nM. Besides, in assay [3] (setting [5]), the “% food intake inhibition” value worked out at 23 ± 7%.

As for `CC[C@H](C)[C@H](NC(=O)[C@H](CC1CCCCC1)NC(=O)[C@H](Cc1c[nH]cn1)NC(=O)[C@H](CCCNC(=N)N)NC(=O)C1CCCCC1)C(=O)N[C@@H](CC(N)=O)C(=O)N[C@@H](CC(C)C)C(=O)NC(C)(C)C(=O)N[C@H](C(=O)N[C@@H](CCCNC(=N)N)C(=O)N[C@@H](CCC(N)=O)C(=O)N[C@@H](CCCNC(=N)N)C(=O)N[C@@H](CC1CCCCC1)C(N)=O)[C@@H](C)O` [Compound 16] (Cyclohexanecarbonyl-RH[Cha]INL[Aib]TRQR[Cha]-NH2), the IC50 in assay [1] was determined as 4.9 nM. In assay [2], this molecule registered an EC50 of 1.6 nM. Moreover, the “% food intake inhibition” value in assay [3] (setting [5]) came out at 5 ± 13%.

Turning to `CC[C@H](C)[C@H](NC(=O)[C@H](CC1CCCCC1)NC(=O)[C@H](Cc1c[nH]cn1)NC(=O)[C@H](CCCNC(=N)N)NC(=O)C1CCCCC1)C(=O)N[C@@H](CC(N)=O)C(=O)N[C@@H](Cc1c[nH]c2ccccc12)C(=O)NC(C)(C)C(=O)N[C@H](C(=O)N[C@@H](CCCNC(=N)N)C(=O)N[C@@H](CCC(N)=O)C(=O)N[C@@H](CCCNC(=N)N)C(=O)N[C@@H](CC1CCCCC1)C(N)=O)[C@@H](C)O` [Compound 17] (Cyclohexanecarbonyl-RH[Cha]INW[Aib]TRQR[Cha]-NH2), in assay [1], the IC50 is 5.7 nM. The EC50 in assay [2] was 1.9 nM. Besides, the “% food intake inhibition” value in assay [3] (setting [5]) turned out to be 24 ± 5%.

Take `CC(C)C[C@H](NC(=O)[C@H](CC(N)=O)NC(=O)[C@H](Cc1c[nH]c2ccccc12)NC(=O)[C@H](CC1CCCCC1)NC(=O)[C@H](Cc1c[nH]cn1)NC(=O)[C@H](CCCNC(=N)N)NC(=O)c1ccccc1)C(=O)NC(C)(C)C(=O)N[C@H](C(=O)N[C@@H](CCCNC(=N)N)C(=O)N[C@@H](CCC(N)=O)C(=O)N[C@@H](CCCNC(=N)N)C(=O)N[C@@H](CC1CCCCC1)C(N)=O)[C@@H](C)O` [Compound 18] (Bz-RH[Cha]WNL[Aib]TRQR[Cha]-NH2): in assay [1], the IC50 was found to be 6.4 nM. Also, the 50% effective concentration (EC50) in assay [2] worked out at 1.6 nM. Besides, in assay [3] (setting [5]), the “% food intake inhibition” value amounted to 2 ± 8%.

In the case of `CC(C)C[C@H](NC(=O)[C@H](CC(N)=O)NC(=O)[C@H](Cc1cccc2ccccc12)NC(=O)[C@H](CC1CCCCC1)NC(=O)[C@H](Cc1c[nH]cn1)NC(=O)[C@H](CCCNC(=N)N)NC(=O)c1ccccc1)C(=O)NC(C)(C)C(=O)N[C@H](C(=O)N[C@@H](CCCNC(=N)N)C(=O)N[C@@H](CCC(N)=O)C(=O)N[C@@H](CCCNC(=N)N)C(=O)N[C@@H](CC1CCCCC1)C(N)=O)[C@@H](C)O` [Compound 19] (Bz-RH[Cha][1Nal]NL[Aib]TRQR[Cha]-NH2), in assay [1], inhibition was half-maximal at 9.1 nM (IC50). Moreover, the half-maximal effective concentration (EC50) in assay [2] stood at 2.7 nM. For the same molecule, the “% food intake inhibition” value in assay [3] (setting [5]) is on record as 41 ± 5%.

In the case of `CC(C)C[C@H](NC(=O)[C@H](CC(N)=O)NC(=O)[C@H](Cc1ccc2ccccc2c1)NC(=O)[C@H](CC1CCCCC1)NC(=O)[C@H](Cc1c[nH]cn1)NC(=O)[C@H](CCCNC(=N)N)NC(=O)c1ccccc1)C(=O)NC(C)(C)C(=O)N[C@H](C(=O)N[C@@H](CCCNC(=N)N)C(=O)N[C@@H](CCC(N)=O)C(=O)N[C@@H](CCCNC(=N)N)C(=O)N[C@@H](CC1CCCCC1)C(N)=O)[C@@H](C)O` [Compound 20] (Bz-RH[Cha][2Nal]NL[Aib]TRQR[Cha]-NH2), in assay [1], the concentration for half-maximal inhibition (IC50) was 29 nM. In assay [2], this molecule displayed an EC50 of 7.5 nM. The “% food intake inhibition” value in assay [3] (setting [5]) is 18 ± 2%.

Turning to `CC(C)C[C@H](NC(=O)[C@H](CC(N)=O)NC(=O)[C@H](CC1CCCCC1)NC(=O)[C@H](CC1CCCCC1)NC(=O)[C@H](Cc1c[nH]cn1)NC(=O)[C@H](CCCNC(=N)N)NC(=O)c1ccccc1)C(=O)NC(C)(C)C(=O)N[C@H](C(=O)N[C@@H](CCCNC(=N)N)C(=O)N[C@@H](CCC(N)=O)C(=O)N[C@@H](CCCNC(=N)N)C(=O)N[C@@H](CC1CCCCC1)C(N)=O)[C@@H](C)O` [Compound 21, benzoyl-[Cha^27,28,36,Aib^31]PYY(25–36)] (Bz-RH[Cha][Cha]NL[Aib]TRQR[Cha]-NH2), in assay [1], the “binding affinity, fold lower than that of PYY3–36” value is on record as “more than 10 fold”. Moreover, in assay [2], the “agonist activity, fold lower than that of PYY3–36” value is recorded as “more than 10 fold”. For the same molecule, the “% food intake inhibition” value in assay [3] (bolus ip 250 nmol/kg, 3 h after administration) is 32 ± 3%; in assay [3] (setting [5]), 49% and 49 ± 4%. For the same molecule, the “% food intake inhibition (cumulative)” value in assay [3] (ip 3 nmol/kg, 3 h after administration) is listed as “–1 ± 6%”; in assay [3] (ip 3 nmol/kg, 6 h after administration) it was “–1 ± 2%”; in assay [3] (ip 3 nmol/kg, 24 h after administration), “–7 ± 5%”; in assay [3] (ip 30 nmol/kg, 3 h after administration) it was 20 ± 6%; in assay [3] (ip 30 nmol/kg, 6 h after administration), 18 ± 3%; in assay [3] (ip 30 nmol/kg, 24 h after administration) it was “–2 ± 3%”. For the same molecule, the “% food intake inhibition (cumulative)” value in assay [3] (ip 300 nmol/kg, 3 h after administration) is listed as 47 ± 3%; in assay [3] (ip 300 nmol/kg, 6 h after administration), 45 ± 2%; in assay [3] (ip 300 nmol/kg, 24 h after administration), 8 ± 3%. For the same molecule, the “minimum effective dose (food intake reduction)” value in assay [3] (food intake 3 and 6 h after dosing) is recorded as 30 nmol/kg; in assay [3] (mass equivalent of 30 nmol/kg) it was “ca. 52 μg/kg”.

In assay [1], `CC(C)C[C@H](NC(=O)[C@H](CC(N)=O)NC(=O)[C@H](CC1CCCCC1)NC(=O)[C@H](CC1CCCCC1)NC(=O)[C@H](Cc1c[nH]cn1)NC(=O)[C@H](CCCNC(=N)N)NC(=O)c1cccc2ccccc12)C(=O)NC(C)(C)C(=O)N[C@H](C(=O)N[C@@H](CCCNC(=N)N)C(=O)N[C@@H](CCC(N)=O)C(=O)N[C@@H](CCCNC(=N)N)C(=O)N[C@@H](CC1CCCCC1)C(N)=O)[C@@H](C)O` [Compound 25] (1Naphthoyl-RH[Cha][Cha]NL[Aib]TRQR[Cha]-NH2) showed an IC50 of 18 nM. Moreover, the EC50 in assay [2] stood at 5.8 nM.

Consider `CC(C)C[C@H](NC(=O)[C@H](CC(N)=O)NC(=O)[C@H](CC1CCCCC1)NC(=O)[C@H](CC1CCCCC1)NC(=O)[C@H](Cc1c[nH]cn1)NC(=O)[C@H](CCCNC(=N)N)NC(=O)c1ccc2ccccc2c1)C(=O)NC(C)(C)C(=O)N[C@H](C(=O)N[C@@H](CCCNC(=N)N)C(=O)N[C@@H](CCC(N)=O)C(=O)N[C@@H](CCCNC(=N)N)C(=O)N[C@@H](CC1CCCCC1)C(N)=O)[C@@H](C)O` [Compound 26] (2Naphthoyl-RH[Cha][Cha]NL[Aib]TRQR[Cha]-NH2), for which the IC50 in assay [1] amounted to 26 nM. This molecule yielded an EC50 in assay [2] of 6 nM.
